According to patent US20260258084A1, “New Peptides as Selective IL-23 Receptor Antagonists” (Sanofi, priority 2022, published 2026):
≈ marks a conversion by molar mass, not a printed value. Where two headings read alike, the source gives them in different places. Starred links: 1 amine or outer side, 2 acyl side, 3 side chain; linkers in the order of their positions; H or OH if unused. Positions of bridges follow the written chain, without caps; N, C: chain ends. Non-standard residues stand in square brackets, D forms with d. Residues, ends and D or L forms follow the SMILES beside them. *: point of attachment. X5 = CN(C(=O)CCC(=O)[*:3])[C@@H](CS[*:2])C(=O)[*:1]; Trp(7-Me) = Cc1cccc2c(C[C@H](N)C(=O)O)c[nH]c12; X1 = O=C(CCCCN[*:3])N[C@@H](CS[*:2])C(=O)[*:1]; 2Nal = N[C@@H](Cc1ccc2ccccc2c1)C(=O)O; 3Pal = N[C@@H](Cc1cccnc1)C(=O)O; Lys(Me) = CNCCCC[C@H](N)C(=O)O; αMeL = CC(C)C[C@](C)(N)C(=O)O; αMeP = C[C@@]1(C(=O)O)CCCN1; Thp = NC1(C(=O)O)CCOCC1; Me2NCH2CH2 = CN(C)CC*; Aib = CC(C)(N)C(=O)O; Ava = NCCCCC(=O)O; Sar = CNCC(=O)O

Assays:
[1] = tested on: Pancreatin; assay: Protease stability in simulated intestinal fluid (Pancreatin-SIF, FaSSIF); format: in vitro ADME; details: 1 μM peptide, 37° C.; for remaining at 1 h, 1 µM: 60 min, read-out: FaSSIF 60 (min), remaining percent of peptide; for remaining at 2 h, 1 µM: 120 min, read-out: FaSSIF 120 (min), remaining percent of peptide; for remaining at 4 h, 1 µM: 240 min, read-out: FaSSIF 240 (min), remaining percent of peptide
Summary of the method: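 Peptide (1 μM final) was incubated at 37° C in simulated intestinal fluid containing pancreatin (1 mg per 10 mL SIF concentrate). Samples were quenched with ethanol/0.1% HCOOH at 0, 60, 120 and 240 min and analysed by LC-MS/MS. Percent remaining is the peak area relative to time 0 (100%).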

[2] = Solubility testing of peptides at different pH; format: physicochemical; details: target concentration 1 mg/ml, 2 hours agitation
Summary of the method: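 Solid obtained by drying down DMSO stock was taken up at 1 mg/mL in 50 mM HCl pH 1.2 or 50 mM phosphate pH 6.5, 7.4 or 9.0, agitated gently for 2 h, then filtered (0.45 μm). Solubility by UPLC-UV peak area against a DMSO reference standard curve, corrected for extinction coefficients.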

[3] = tested on: T1, Pepsin; assay: Protease stability in simulated gastric fluid (Pepsin-SGF, FaSSGF); format: in vitro ADME; details: simulated gastric fluid with pepsin (Pepsin-SGF), 60 min, 1 μM peptide, 37° C., read-out: FaSSGF 60 (min), remaining percent of peptide
T1 construct: purchased Merck Millipore
Summary of the method: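 Peptides at 1 μM final in pepsin-containing SGF at 37° C, sampled at 0, 60, 120 and 240 min, quenched with ethanol (0.1% HCOOH). Analysed by LCMS/MS; percent remaining from peak area relative to time 0 (set to 100%).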

[4] = tested on: IL-23 induced STAT3 signaling in HEK-Blue™ IL-23 cells; assay: IL-23 induced STAT3 signaling in HEK-Blue IL-23 cells (SEAP reporter); format: cell-based; details: human IL23 0.25 ng/ml, read-out: pSTAT3
Summary of the method: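 HEK-Blue IL-23 cells (10,000/well) pre-incubated 60 min at 37 °C with serially diluted peptides, then stimulated overnight with human IL-23 (0.25 ng/ml final). STAT3-driven SEAP in supernatant detected with QUANTI-Blue after 45 min at RT (OD 620-655 nm); dose-response curves fitted.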

[5] = molecular target: T2, human interleukin-23 receptor (recombinant human IL-23R-Fc chimera) (Homo sapiens, UniProt Q5VWK5); assay: Human ELISA IL23/IL23R (assay for specific human IL23R antagonists); format: binding; details: Table 10; read-out: Human ELISA IL23/IL23R IC50
T2 construct: Fc (IgG Fc fusion)
Summary of the method: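 Plates coated overnight at 4 °C with human IL23 ([…]), blocked, then serially diluted peptides added with recombinant human IL-23R-Fc (0.1 μg/ml final) for 60 min at room temperature. Bound receptor detected with anti-human IgG1-HRP and fluorogenic peroxidase substrate.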

[6] = 50 mM HCl buffer, 50 mM HCl pH 1.2, read-out: Solubility Buffer pH 1.2
[7] = 50 mM phosphate buffer pH 6.5, read-out: Solubility Buffer pH 6.5
[8] = 50 mM phosphate buffer pH 7.4, read-out: Solubility Buffer pH 7.4
[9] = 50 mM phosphate buffer pH 9.0, read-out: Solubility Buffer pH 9.0

| remaining at 1 h, 1 µM [1] [%] | remaining at 2 h, 1 µM [1] [%] | remaining at 4 h, 1 µM [1] [%] | solubility at 2 h [2, 6] [µg/mL] | solubility at 2 h [2, 7] [µg/mL] | solubility at 2 h [2, 8] [µg/mL] | remaining at 1 h, 1 µM [3] [%] | IC50 [5] [nM] | solubility at 2 h [2, 9] [µg/mL] | SMILES | IC50 [4] [nM] |
| --- | --- | --- | --- | --- | --- | --- | --- | --- | --- | --- |
| 90 | 86 | 81 | ≥ 910 | ≥ 980 | ≥ 910 | 95 | 0.41 | – | Cc1cccc2c(C[C@@H]3NC(=O)[C@H]([C@@H](C)O)NC(=O)[C@H](CC(N)=O)NC(=O)[C@@H]4CSSC[C@H](NC(=O)[C@H](CCC(N)=O)NC3=O)C(=O)N[C@@H](Cc3ccc(OCCN(C)C)cc3)C(=O)N[C@@H](Cc3ccc5ccccc5c3)C(=O)N[C@@](C)(CC(C)C)C(=O)N[C@H](C(=O)N[C@@H](CC(N)=O)C(=O)N[C@@H](Cc3cccnc3)C(=O)N(C)CC(N)=O)CCC(=O)NCCCCC(=O)N4)c[nH]c12 [compound 63] ([Ava]CNT[Trp(7-Me)]QCY(Me2NCH2CH2)[2Nal][αMeL]EN[3Pal][Sar]-NH2; disulfide 2-7; lactam N-11) | 0.2 |
| 94 | 86 | 64 | ≥ 1110 | ≥ 1230 | ≥ 1230 | 82 | 0.61 | – | C[C@@H](O)[C@@H]1NC(=O)[C@H](CC(N)=O)NC(=O)[C@@H]2CSSC[C@H](NC(=O)[C@H](CCC(N)=O)NC(=O)[C@H](Cc3c[nH]c4ccccc34)NC1=O)C(=O)N[C@@H](Cc1ccc(OCCN)cc1)C(=O)N[C@H](Cc1ccc3ccccc3c1)C(=O)NC(C)(C)C(=O)N[C@H](C(=O)N[C@@H](CC(N)=O)C(=O)N[C@@H](CC(N)=O)C(N)=O)CCC(=O)NCCCCC(=O)N2 [compound 5] | 9.66 |
| 80 | 79 | 63 | ≥ 890 | ≥ 940 | 590 (≈ 311 µM) | 77 | 0.38 | 90 (≈ 47.5 µM) | CC[C@H](C)[C@H](NC(=O)[C@H](Cc1cccnc1)NC(=O)[C@H](CC(N)=O)NC(=O)[C@@H]1CCC(=O)NCCCCC(=O)N[C@H]2CSSC[C@H](NC(=O)[C@H](CCCCNC(C)=O)NC(=O)[C@H](Cc3c[nH]c4ccccc34)NC(=O)[C@H]([C@@H](C)O)NC(=O)[C@H](CC(N)=O)NC2=O)C(=O)N[C@@H](Cc2ccc(OCCN(C)C)cc2)C(=O)N[C@@H](Cc2ccc3ccccc3c2)C(=O)NC(C)(C)C(=O)N1)C(N)=O [compound 37] ([Ava]CNTWK(Ac)CY(Me2NCH2CH2)[2Nal][Aib]EN[3Pal]I-NH2; disulfide 2-7; lactam N-11) | 2 |

Continued, compound first:

| SMILES | remaining at 1 h, 1 µM [1] [%] | remaining at 2 h, 1 µM [1] [%] | remaining at 4 h, 1 µM [1] [%] | solubility at 2 h [2, 6] [µg/mL] | solubility at 2 h [2, 7] [µg/mL] | solubility at 2 h [2, 8] [µg/mL] | remaining at 1 h, 1 µM [3] [%] | IC50 [5] [nM] | solubility at 2 h [2, 9] [µg/mL] | IC50 [4] [nM] |
| --- | --- | --- | --- | --- | --- | --- | --- | --- | --- | --- |
| CC(=O)NCCCC[C@@H]1NC(=O)[C@H](Cc2c[nH]c3c(C)cccc23)NC(=O)[C@H]([C@@H](C)O)NC(=O)[C@H](CC(N)=O)NC(=O)[C@@H]2CSSC[C@H](NC1=O)C(=O)N[C@@H](Cc1ccc(OCCN(C)C)cc1)C(=O)N[C@@H](Cc1ccc3ccccc3c1)C(=O)NC1(CCOCC1)C(=O)N[C@H](C(=O)N[C@@H](CC(N)=O)C(=O)N[C@@H](Cc1c[nH]cn1)C(=O)N1CCC[C@@]1(C)C(N)=O)CCC(=O)NCCCCC(=O)N2 [compound 55] ([Ava]CNT[Trp(7-Me)]K(Ac)CY(Me2NCH2CH2)[2Nal][Thp]ENH[αMeP]-NH2; disulfide 2-7; lactam N-11) | 89 | 80 | 82 | ≥ 1110 | ≥ 1040 | ≥ 960 | 91 | 0.4 | – | 0.95 |
| CC(=O)NCCCC[C@@H]1NC(=O)[C@H](Cc2c[nH]c3c(C)cccc23)NC(=O)[C@@H](NC(C)=O)CCCCNC(=O)[C@@H]2CSSC[C@H](NC1=O)C(=O)N[C@@H](Cc1ccc(OCCN(C)C)cc1)C(=O)N[C@@H](Cc1ccc3ccccc3c1)C(=O)NC1(CCOCC1)C(=O)N[C@H](C(=O)N[C@@H](CC(N)=O)C(=O)N[C@@H](Cc1cccnc1)C(=O)N(C)CC(N)=O)CCCCN(C)C(=O)CCC(=O)N2C [compound 74] (Ac-K[Trp(7-Me)]K(Ac)CY(Me2NCH2CH2)[2Nal][Thp][Lys(Me)]N[3Pal][Sar]-NH2; linker 1-4-8 via X5) | 87 | 84 | 78 | ≥ 1390 | ≥ 980 | 330 (≈ 174 µM) | 92 | 0.54 | 180 (≈ 95.1 µM) | 0.12 |
| CC(=O)NCCCC[C@@H]1NC(=O)[C@H](Cc2c[nH]c3c(C)cccc23)NC(=O)[C@H]([C@@H](C)O)NC(=O)[C@H](CC(N)=O)NC(=O)[C@@H]2CSSC[C@H](NC1=O)C(=O)N[C@@H](Cc1ccc(OCCN(C)C)cc1)C(=O)N[C@@H](Cc1ccc3ccccc3c1)C(=O)NC1(CCOCC1)C(=O)N[C@H](C(=O)N[C@@H](CC(N)=O)C(=O)N[C@@H](Cc1c[nH]cn1)C(N)=O)CCC(=O)NCCCCC(=O)N2 [compound 21] ([Ava]CNT[Trp(7-Me)]K(Ac)CY(Me2NCH2CH2)[2Nal][Thp]ENH-NH2; disulfide 2-7; lactam N-11) | 89 | 77 | 75 | ≥ 1080 | ≥ 1010 | ≥ 970 | 91 | 0.31 | 230 (≈ 126 µM) | 2.67 |
| COc1ccc(C[C@@H]2NC(=O)[C@@H]3CSSC[C@H](NC(=O)CCCCNC(=O)CC[C@@H](C(=O)N[C@@H](CC(N)=O)C(=O)N[C@@H](CC(N)=O)C(N)=O)NC(=O)C(C)(C)NC(=O)[C@H](Cc4ccc5ccccc5c4)NC2=O)C(=O)N[C@@H](CC(N)=O)C(=O)N[C@@H]([C@@H](C)O)C(=O)N[C@@H](Cc2c[nH]c4ccccc24)C(=O)N[C@@H](CCC(N)=O)C(=O)N3)cc1 [compound 1] ([Ava]CNTWQCY(Me)[2Nal][Aib]ENN-NH2; disulfide 2-7; lactam N-11) | 72 | 74 | 58 | 100 (≈ 60.6 µM) | < 50 | < 50 | 2 | 0.72 | – | 18.5 |
| CC(=O)N[C@H]1CCCCNC(=O)[C@@H]2CSSC[C@H](NC(=O)[C@H](CC(C)C)NC(=O)[C@H](Cc3c[nH]c4c(C)cccc34)NC1=O)C(=O)N[C@@H](Cc1ccc(OCCN(C)C)cc1)C(=O)N[C@@H](Cc1ccc3ccccc3c1)C(=O)N[C@@](C)(CC(C)C)C(=O)N[C@H](C(=O)N[C@@H](CC(N)=O)C(=O)N[C@@H](Cc1cccnc1)C(=O)N(C)CC(N)=O)CCCCN(C)C(=O)CCC(=O)N2C [compound 69] (Ac-K[Trp(7-Me)]LCY(Me2NCH2CH2)[2Nal][αMeL][Lys(Me)]N[3Pal][Sar]-NH2; linker 1-4-8 via X5) | 97 | 89 | 83 | – | – | – | 79 | 2.17 | – | 3.07 |
| CC(=O)N[C@H]1CCCCNC(=O)[C@@H]2CSSC[C@H](NC(=O)[C@H](CCC(N)=O)NC(=O)[C@H](Cc3c[nH]c4ccccc34)NC1=O)C(=O)N[C@@H](Cc1ccc(OCCN(C)C)cc1)C(=O)N[C@@H](Cc1ccc3ccccc3c1)C(=O)N[C@@](C)(CC(C)C)C(=O)N[C@H](C(=O)N[C@@H](CC(N)=O)C(=O)NCC(N)=O)CCC(=O)NCCCCC(=O)N2 [compound 31] (Ac-KWQCY(Me2NCH2CH2)[2Nal][αMeL]ENG-NH2; linker 1-4-8 via X1) | 83 | 72 | 55 | – | – | – | 99 | 0.36 | – | 5.23 |
